Data as given in the Kinase Knowledgebase extract (Sharma et al. 2016).

Molecular target: CDK2 (human) (UniProt P24941)
Test: Enzyme Assay

Compound | IC50
CC(C)(C)OC(=O)N1CCC(COc2cccc(NC(=O)Nc3csc(-c4ccncc4)n3)n2)CC1 | < 500 nM
O=C(Nc1cccc(C2=CCNCC2)n1)Nc1csc(-c2ccncc2)n1 | < 500 nM
CC(C)(C)OC(=O)N1CCC[C@@H]1COc1cccc(NC(=O)Nc2csc(-c3ccncc3)n2)n1 | < 500 nM
O=C(Nc1cccc(NCCCO)n1)Nc1csc(-c2ccncc2)n1 | < 500 nM
CCN(CC)C(=O)c1ccnc(NC(=O)Nc2csc(-c3ccncc3)n2)c1 | < 500 nM
CN1CC(COc2cccc(NC(=O)Nc3csc(-c4ccncc4)n3)n2)C1 | < 500 nM
C[C@@H]1CCCN(Cc2cccc(NC(=O)Nc3csc(-c4ccncc4)n3)n2)C1 | < 500 nM
O=C(Nc1cccc(CN2CCCCC2)n1)Nc1csc(Cl)n1 | < 500 nM
CN1CCC[C@H]1COc1cccc(NC(=O)Nc2csc(-c3cccc(S(N)(=O)=O)c3)n2)n1 | < 500 nM
CC(C)(C)c1cnc(-c2nc(NC(=O)Nc3cccc(OCCC4CCNCC4)n3)cs2)o1 | < 500 nM
CN1CCC(COc2cccc(NC(=O)Nc3csc(-c4ccncc4)n3)n2)CC1 | < 500 nM
CC1CCCN(Cc2cccc(NC(=O)Nc3csc(Br)n3)n2)C1 (centres undefined) | < 500 nM
O=C(Nc1csc(-c2ccncc2)n1)Nc1ncccn1 | < 500 nM
O=C(Nc1cccc(OCCC2CCNCC2)n1)Nc1csc(Cl)n1 | < 500 nM
CN1CCC(c2cccc(NC(=O)Nc3csc(-c4ccncc4)n3)n2)CC1 | < 500 nM
Cn1cccc1C(=O)N1CCC(COc2cccc(NC(=O)Nc3csc(-c4ccncc4)n3)n2)C1 (centres undefined) | < 500 nM
CN1CCC(c2cccc(NC(=O)Nc3csc(-c4ccccc4)n3)n2)CC1 | < 500 nM
CN1CC=C(c2cccc(NC(=O)Nc3csc(Br)n3)n2)CC1 | < 500 nM
O=C(Nc1cccc(OCC2CCNCC2)n1)Nc1csc(Cl)n1 | < 500 nM
CC(C)NCc1cccc(NC(=O)Nc2csc(-c3ccccc3)n2)n1 | < 500 nM
CC(C)(C)OC(=O)N1CCC(COc2cccc(NC(=O)Nc3csc(-c4ccncc4)n3)n2)C1 (centres undefined) | < 500 nM

Compound | IC50
O=C(Nc1cccc(OCC2CCNCC2)n1)Nc1csc(-c2ccccc2)n1 | < 500 nM
CN1CCC[C@H]1COc1cccc(NC(=O)Nc2csc(-c3ccccc3)n2)n1 | < 500 nM
CC(C)(C)OC(=O)N1CCCCC1CNc1cccc(NC(=O)Nc2csc(-c3ccncc3)n2)n1 (centres undefined) | < 500 nM
CCN1CCN(c2cccc(NC(=O)Nc3csc(-c4ccccc4)n3)n2)CC1 | < 500 nM
C[C@H]1CCCN(Cc2cccc(NC(=O)Nc3csc(-c4ccncc4)n3)n2)C1 | < 500 nM
CN1CC=C(c2cccc(NC(=O)Nc3csc(-c4ccccc4)n3)n2)CC1 | < 500 nM
O=C(Nc1cc(C(=O)N2CCCCC2)ccn1)Nc1csc(-c2ccccc2)n1 | < 500 nM
CC1CCCN(Cc2cccc(NC(=O)Nc3csc(-c4ccccc4)n3)n2)C1 (centres undefined) | < 500 nM
O=C(Nc1cccc(N2CCN(c3ncccn3)CC2)n1)Nc1csc(-c2ccccc2)n1 | < 500 nM
CC1CCCC(C)N1Cc1cccc(NC(=O)Nc2csc(-c3ccncc3)n2)n1 (centres undefined) | < 500 nM
CC(C)N(Cc1cccc(NC(=O)Nc2csc(Cl)n2)n1)C(=O)OC(C)(C)C | < 500 nM
O=C(Nc1cccc(OCC2CCNCC2)n1)Nc1csc(-c2ccncc2)n1 | < 500 nM
O=C(Nc1cc(CN2CCCCC2)ccn1)Nc1csc(-c2ccccc2)n1 | < 500 nM
CCN(CC)Cc1ccnc(NC(=O)Nc2csc(-c3ccncc3)n2)c1 | < 500 nM
CC(C)NCc1cccc(NC(=O)Nc2csc(Cl)n2)n1 | < 500 nM
CC(c1cccc(NC(=O)Nc2csc(-c3ccncc3)n2)n1)N1CCCCC1 (centres undefined) | < 500 nM
O=C(Nc1cccc(CN2CCCC2)n1)Nc1csc(-c2ccccc2)n1 | < 500 nM
CN1CC=C(c2cccc(NC(=O)Nc3csc(-c4ccncc4)n3)n2)CC1 | < 500 nM
O=C(Nc1cccc(NCCCO)n1)Nc1csc(Br)n1 | < 500 nM
CC(C)(C)OC(=O)N1CCC(CCOc2cccc(NC(=O)Nc3csc(-c4ccccc4)n3)n2)CC1 | < 500 nM
O=C(Nc1cccc(OCCC2CCNCC2)n1)Nc1csc(-c2ccccc2)n1 | < 500 nM

Second part, the molecule after the results:

IC50 | Compound
< 500 nM | CN1CCC(COc2cccc(NC(=O)Nc3csc(-c4ccccc4)n3)n2)CC1
< 500 nM | O=C(Nc1cccc(OCCC2CCNCC2)n1)Nc1csc(Br)n1
< 500 nM | O=C(Nc1cc(C(=O)N2CCCCC2)ccn1)Nc1csc(-c2ccncc2)n1
< 500 nM | O=C(Nc1cccc(OCC2CCOC2)n1)Nc1csc(-c2ccncc2)n1 (centres undefined)
< 500 nM | O=C(Nc1cccc(OCC2CCNC2)n1)Nc1csc(-c2ccncc2)n1 (centres undefined)
< 500 nM | O=C(Nc1cccc(OCC2CCCO2)n1)Nc1csc(-c2ccncc2)n1 (centres undefined)
< 500 nM | COc1cc(-c2nc(NC(=O)Nc3cccc(CN4CCCCC4)n3)cs2)ccn1
< 500 nM | CN1CCC[C@H]1COc1cccc(NC(=O)Nc2csc(CS(=O)(=O)c3cccs3)n2)n1
< 500 nM | O=C(Nc1cccc(OCC2CNC2)n1)Nc1csc(-c2ccccc2)n1
< 500 nM | O=C(Nc1cccc(Oc2ccc(CN3CCCC3)cc2)n1)Nc1csc(Br)n1
< 500 nM | Cc1cc(C(=O)N2CCC(COc3cccc(NC(=O)Nc4csc(-c5ccncc5)n4)n3)C2)n(C(C)(C)C)n1 (centres undefined)
< 500 nM | CC(C)(C)OC(=O)N1CC=C(c2cccc(NC(=O)Nc3csc(-c4ccncc4)n3)n2)CC1
< 500 nM | O=C(Nc1cccc(OCCC2CCNCC2)n1)Nc1csc(-c2cccs2)n1
< 500 nM | O=C(Nc1cccc(NCC2CCCCN2)n1)Nc1csc(-c2ccncc2)n1 (centres undefined)
< 500 nM | CCN(CC)C(=O)c1cccc(NC(=O)Nc2csc(-c3ccccc3)n2)n1
< 500 nM | O=C(Nc1cccc(OCC2CNC2)n1)Nc1csc(Cl)n1
< 500 nM | CN1CCC[C@@H]1COc1cccc(NC(=O)Nc2csc(-c3ccncc3)n2)n1
< 500 nM | CC(C)NCc1cccc(NC(=O)Nc2csc(-c3ncc(C(C)(C)C)o3)n2)n1
< 500 nM | O=C(Nc1cccc(OCC2CCNCC2)n1)Nc1csc(Br)n1
< 500 nM | O=C(Nc1cc(C(=O)N2CCCCC2)ccn1)Nc1csc(Br)n1
< 500 nM | O=C(Nc1cccc(OCCC2CCNCC2)n1)Nc1csc(C2CC2)n1
< 500 nM | O=C(Nc1cccc(Oc2ccc(CN3CCCC3)cc2)n1)Nc1csc(-c2ccccc2)n1
< 500 nM | CN1CC(COc2cccc(NC(=O)Nc3csc(-c4ccccc4)n3)n2)C1
< 500 nM | CC1CCCN(Cc2cccc(NC(=O)Nc3csc(Cl)n3)n2)C1 (centres undefined)
< 500 nM | CC(C)(C)OC(=O)N1CC(COc2cccc(NC(=O)Nc3csc(-c4ccccc4)n3)n2)C1
< 500 nM | O=C(Nc1cccc(OCC2CNC2)n1)Nc1csc(Br)n1
< 500 nM | CC(C)N(Cc1cccc(NC(=O)Nc2csc(Br)n2)n1)C(=O)OC(C)(C)C
